Measured values published in patent US5672707A (priority 1991, dated 1997).

Assays:
in vivo = conditions: intraperitoneal injection, Table 5; for LD50: in vivo, ip, read-out: LD50 (mg/kg) by Kerber
Method: (§1) Psychoneurotropic activity of the declared compounds and their influence on learning and memory were observed using unbred male (18-20 g) mice and 180-200 g) rats, held at standard conditions (room temperature 21°-22° C., 12-hours lighting schedule, food and water ad libitum).
Acute toxicity was studied by the method of Kerber with intra peritoneal drug injection.

[1] = molecular target: T1, Acetylcholinesterase, enzyme from human erythrocytes (Homo sapiens, UniProt P22303); experiment: Acetylcholinesterase inhibition, spectrophotometric technique of Ellman; format: biochemical; conditions: Acetylcholinesterase inhibition IC50 (M), enzyme from human erythrocytes; Table 5
T1 construct: on the enzyme from human erythrocytes; from tissue; host or cells: human erythrocytes
T1 sequence (P22303-2 with tags, fused parts or gaps limits assumed): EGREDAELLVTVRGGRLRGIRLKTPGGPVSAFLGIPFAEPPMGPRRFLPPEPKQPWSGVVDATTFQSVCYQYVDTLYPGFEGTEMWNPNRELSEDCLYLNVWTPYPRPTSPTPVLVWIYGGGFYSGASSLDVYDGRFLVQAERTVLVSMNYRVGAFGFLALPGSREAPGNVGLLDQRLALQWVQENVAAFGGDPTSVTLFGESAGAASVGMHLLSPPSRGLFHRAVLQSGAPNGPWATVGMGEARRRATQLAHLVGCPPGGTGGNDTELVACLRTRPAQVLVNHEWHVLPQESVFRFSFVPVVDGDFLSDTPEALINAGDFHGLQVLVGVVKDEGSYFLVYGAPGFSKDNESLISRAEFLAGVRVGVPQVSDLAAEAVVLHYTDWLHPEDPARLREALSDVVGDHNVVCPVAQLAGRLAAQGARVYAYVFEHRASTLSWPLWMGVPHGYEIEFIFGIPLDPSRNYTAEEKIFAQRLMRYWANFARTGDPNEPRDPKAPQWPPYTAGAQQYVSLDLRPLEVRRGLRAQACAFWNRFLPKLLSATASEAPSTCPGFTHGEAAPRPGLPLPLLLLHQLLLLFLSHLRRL
Method: Acetylcholinesterase inhibition under the action of preparations was assessed by the spectrophotometric technique of Ellman on the enzyme from human erythrocytes.

rats = experiment: Passive avoidance test in normal rats, 50% acquisition; format: in vivo; conditions: for change in vivo at 0.1 mg/kg: Rattus norvegicus, ip, 20 min, read-out: Increase of the number of correct trails (% to control). Passive avoidance test (rats); for change in vivo at 0.1 mg/kg / Increase of the number of correct trails (% to control). Passive avoidance test (rats): rats, 0.1 mg/kg i.p. 20 min before training, piracetam 250 mg/kg 60 min before training
Method: as §1
The influence of drugs on reflex conditioning in rats was studied by the passive avoidance test in conditions of 50% acquisition. The effect of the compound was estimated by the increase of the relative number of learned animals with respect to that of control group. […] The other reference drug--noothropic agent piracetam--was given in the dose 250 mg/kg 60 min before training. Amnestic syndrome was stimulated by 20 days application of Sc at the daily dose of 1 mg/kg intraperitoneally. […] The passive avoidance test was performed within 24 hours after the last application of test preparations.

mice [2] = experiment: Psychotropic activity test: motor activity; format: in vivo; conditions: intraperitoneally, dose 1/20 of LD
mice [3] = experiment: Psychotropic activity test: arecoline induced hyperkynesis; format: in vivo; conditions: intraperitoneally, dose 1/20 of LD
rat adipocytes = experiment: Lipid composition of adipocytes after incubation with compounds; format: cell-based; conditions: cells; Table 11
Method: Lipid regulative activity of the declared compounds--derivatives of 9-amino acridine--were evaluated in vitro[…] using rat adipocytes. Adipocytes were separated from adipose tissue of testis appendages of adult male rats. Lipid composition analysis was performed by the method of thin-layer chromatography.
Quantitative analysis of phospholipids (PL), mono- and diacylglycerides (MDG), triacylglycerides (TG), free fatty acids (FFA), free cholesterol (FCL), and methyl esters of fatty acids (MEFA) was performed by the method of spectrophotometry.

CNc1c2c(nc3ccccc13)CC(C)(C)CC2=O [Vh]
LD50 (in vivo): 65.8 ± 4.8 mg/kg | IC50 [1]: 4e-07 M | change in vivo at 0.1 mg/kg (rats): 0% | Motor activity increment (% to control) (mice [2]): 40 % to control | Increase of duration of arecoline induced hyperkynesis (% to control) (mice [3]): 20 % to control

CCNc1c2c(nc3ccccc13)CC(C)(C)CC2=O [Vj]
LD50 (in vivo): 73.3 ± 8.6 mg/kg | IC50 [1]: 1.7e-06 M | change in vivo at 0.1 mg/kg (rats): 0% | Motor activity increment (% to control) (mice [2]): 59 % to control | Increase of duration of arecoline induced hyperkynesis (% to control) (mice [3]): 20 % to control

CCCNc1c2c(nc3ccccc13)CC(C)(C)CC2=O [Vl]
LD50 (in vivo): 283 ± 35.7 mg/kg | IC50 [1]: 3e-06 M | change in vivo at 0.1 mg/kg (rats): 0% | Motor activity increment (% to control) (mice [2]): 74 % to control | Increase of duration of arecoline induced hyperkynesis (% to control) (mice [3]): 30 % to control

CC(C)Nc1c2c(nc3ccccc13)CC(C)(C)CC2=O [Vn]
LD50 (in vivo): 70.2 ± 7.3 mg/kg | IC50 [1]: 6e-06 M | change in vivo at 0.1 mg/kg (rats): 0% | Motor activity increment (% to control) (mice [2]): 76 % to control | Increase of duration of arecoline induced hyperkynesis (% to control) (mice [3]): 0 % to control

CC(C)CNc1c2c(nc3ccccc13)CC(C)(C)CC2=O [Vq]
LD50 (in vivo): 158 ± 21.9 mg/kg | IC50 [1]: 2e-06 M | change in vivo at 0.1 mg/kg (rats): 0% | Motor activity increment (% to control) (mice [2]): 75 % to control | Increase of duration of arecoline induced hyperkynesis (% to control) (mice [3]): 0 % to control

CCN(CC)CCNc1c2c(nc3ccccc13)CC(C)(C)CC2=O [Vr]
LD50 (in vivo): 135 ± 8.2 mg/kg | IC50 [1]: 5e-05 M | change in vivo at 0.1 mg/kg (rats): 0% | Motor activity increment (% to control) (mice [2]): 0 % to control | Increase of duration of arecoline induced hyperkynesis (% to control) (mice [3]): 26 % to control

CCCCNc1c2c(nc3ccccc13)CC(C)(C)CC2=O [Vu]
LD50 (mg/kg) by Kerber (in vivo): 210.0 ± 5.8 mg/kg | Performance of normal rats in passive avoidance test (rats; normal rats): statistically significantly improved performance of normal rats | Increase of the number of correct trails (% to control). Passive avoidance test (rats) (rats): 30 % to control | Motor activity increment (% to control) (mice [2]): 20 % to control | Increase of duration of arecoline induced hyperkynesis (% to control) (mice [3]): 0 % to control

CCCCNc1c2c(nc3ccccc13)CC(C)(C)CC2=O [Vv]
LD50 (mg/kg) by Kerber (in vivo): 433.3 ± 7.8 mg/kg | Increase of the number of correct trails (% to control). Passive avoidance test (rats) (rats): 25 % to control | Motor activity increment (% to control) (mice [2]): 26 % to control | Increase of duration of arecoline induced hyperkynesis (% to control) (mice [3]): 15 % to control

CCCCNc1c2c(nc3ccccc13)CC(C)(C)CC2=O [Vw]
LD50 (mg/kg) by Kerber (in vivo): 125.0 ± 11.8 mg/kg | Increase of the number of correct trails (% to control). Passive avoidance test (rats) (rats): 10 % to control | Motor activity increment (% to control) (mice [2]): 10 % to control | Increase of duration of arecoline induced hyperkynesis (% to control) (mice [3]): 10 % to control

CCCCNc1c2c(nc3ccccc13)CC(C)(C)CC2=O [Vy]
LD50 (mg/kg) by Kerber (in vivo): 210.0 ± 14.8 mg/kg | Increase of the number of correct trails (% to control). Passive avoidance test (rats) (rats): 0 % to control | Motor activity increment (% to control) (mice [2]): 0 % to control | Increase of duration of arecoline induced hyperkynesis (% to control) (mice [3]): 0 % to control

CCCCNc1c2c(nc3ccccc13)CC(C)(C)CC2=O [Vz]
LD50 (mg/kg) by Kerber (in vivo): 200.0 ± 21.9 mg/kg | Increase of the number of correct trails (% to control). Passive avoidance test (rats) (rats): 20 % to control | Motor activity increment (% to control) (mice [2]): 0 % to control | Increase of duration of arecoline induced hyperkynesis (% to control) (mice [3]): 0 % to control

CC(C)(Sc1cc(C(C)(C)C)c(O)c(C(C)(C)C)c1)Sc1cc(C(C)(C)C)c(O)c(C(C)(C)C)c1 [probucol, reference compound]
FFA/TG in adipocytes (rat adipocytes): 1.10 | PL/CL in adipocytes (rat adipocytes): 0.84 | PL/TG in adipocytes (rat adipocytes): 0.69
